Source: the supplement of paper PMC13380429

Experiments:
Settings in all cases: 72 h
Calu-3 [1] = test: relative viability EC50 (midpoint between 100% and the lowest measured viability); higher = less toxic
HepG2 [2] = test: as above
Calu-3 [3] = test: drug sensitivity score (DSS) for viability; higher = more toxic; extreme values may be limits of the assay
HepG2 [4] = test: as above
Calu-3 [5] = test: cell viability relative to DMSO; higher = less toxic
HepG2 [6] = test: as above
Vero E6 [7] = test: relative viability EC50 (midpoint between 100% and the lowest measured viability); higher = less toxic
Vero E6 [8] = test: drug sensitivity score (DSS) for viability; higher = more toxic; extreme values may be limits of the assay
U2OS [9] = test: as above
Caco-2 [10] = test: as above
Vero E6 [11] = test: cell viability relative to DMSO; higher = less toxic
U2OS [12] = test: as above
Caco-2 [13] = test: as above
Caco-2 [14] = test: relative viability EC50 (midpoint between 100% and the lowest measured viability); higher = less toxic

SMILES | relative viability EC50 (Calu-3 [1]) [µM] | relative viability EC50 (HepG2 [2]) [µM] | drug sensitivity score (Calu-3 [3]) | drug sensitivity score (HepG2 [4]) | cell viability (Calu-3 [5]; 1 nM) [%] | cell viability (Calu-3 [5]; 10 nM) [%] | cell viability (Calu-3 [5]; 100 nM) [%] | cell viability (Calu-3 [5]; 1000 nM) [%] | cell viability (Calu-3 [5]; 10000 nM) [%] | cell viability (HepG2 [6]; 1 nM) [%] | cell viability (HepG2 [6]; 10 nM) [%] | cell viability (HepG2 [6]; 100 nM) [%] | cell viability (HepG2 [6]; 1000 nM) [%] | cell viability (HepG2 [6]; 10000 nM) [%] | relative viability EC50 (Vero E6 [7]) [µM] | drug sensitivity score (Vero E6 [8]) | drug sensitivity score (U2OS [9]) | drug sensitivity score (Caco-2 [10]) | cell viability (Vero E6 [11]; 1 nM) [%] | cell viability (Vero E6 [11]; 10 nM) [%] | cell viability (Vero E6 [11]; 100 nM) [%] | cell viability (Vero E6 [11]; 1000 nM) [%] | cell viability (Vero E6 [11]; 10000 nM) [%] | cell viability (U2OS [12]; 1 nM) [%] | cell viability (U2OS [12]; 10 nM) [%] | cell viability (U2OS [12]; 100 nM) [%] | cell viability (U2OS [12]; 1000 nM) [%] | cell viability (U2OS [12]; 10000 nM) [%] | cell viability (Caco-2 [13]; 1 nM) [%] | cell viability (Caco-2 [13]; 10 nM) [%] | cell viability (Caco-2 [13]; 100 nM) [%] | cell viability (Caco-2 [13]; 1000 nM) [%] | cell viability (Caco-2 [13]; 10000 nM) [%] | relative viability EC50 (Caco-2 [14]) [µM]
Nc1nc(O)c2nc(Br)n([C@@H]3O[C@@H]4COP(=O)(O)O[C@H]4[C@H]3O)c2n1 [8-bromo-cGMP] | > 10 | > 10 | 0 | 0 | 105 | 94.3 | 107 | 90.5 | 113 | 101 | 103 | 94.6 | 110 | 108 | – | – | – | – | – | – | – | – | – | – | – | – | – | – | – | – | – | – | – | –
CCOC(=O)c1ncc2[nH]c3ccc(OCc4ccccc4)cc3c2c1COC | – | 1.27 | 1 | 9 | 110 | 89.2 | 96.6 | 104 | 70.9 | 102 | 105 | 101 | 69.5 | 14.1 | > 10 | 0.3 | 3.1 | 4.3 | 91.9 | 97.3 | 87.9 | 93.5 | 85 | 96 | 94.9 | 99 | 90.9 | 64.7 | 99.8 | 97 | 90.6 | 79.1 | 63.7 | –
COCCOCCOc1ccc(C2=N[C@@](C)(C(=O)O)CS2)c(O)c1 [SP-420] | > 10 | – | 0 | 1.1 | 95.1 | 102 | 103 | 95.5 | 91.4 | 99.8 | 94.7 | 93 | 102 | 70.6 | > 10 | 0 | 1.8 | 3 | 95 | 98.5 | 98.3 | 105 | 100 | 103 | 99.5 | 108 | 98.5 | 65.4 | 91.5 | 92.1 | 94.1 | 96 | 54 | –
O=c1[nH]cnc2c1cnn2[C@@H]1O[C@H](CO)[C@@H](O)[C@H]1O [allopurinol-riboside] | > 10 | – | 0 | – | 102 | 90.7 | 103 | 93.4 | 98.1 | – | – | – | – | – | > 10 | 0 | – | 0 | 102 | 100 | 98.2 | 103 | 102 | – | – | – | – | – | 97.7 | 98 | 111 | 91.8 | 101 | > 10
COc1cc(N)cn[n+]1-c1ccccc1 [amezinium] | > 10 | – | 0 | – | 97.8 | 110 | 106 | 89.9 | 96.6 | – | – | – | – | – | – | – | – | 0 | – | – | – | – | – | – | – | – | – | – | 109 | 108 | 100 | 110 | 97.8 | > 10
O=C(CBr)N1CC([N+](=O)[O-])([N+](=O)[O-])C1 [RRx-001] | > 10 | > 10 | 0 | 0 | 101 | 91.6 | 116 | 100 | 100 | 102 | 114 | 109 | 106 | 94.8 | > 10 | 0 | – | 0 | 106 | 106 | 99.6 | 102 | 102 | – | – | – | – | – | 105 | 98.3 | 113 | 104 | 105 | > 10
NS(=O)(=O)c1cc(C(=O)O)c(NCc2ccco2)cc1Cl [furosemide] | > 10 | > 10 | 0 | 0 | 98.1 | 95.3 | 103 | 81.5 | 104 | 121 | 87.5 | 113 | 103 | 120 | > 10 | 0 | – | 0 | 99.8 | 90.5 | 97.1 | 89.6 | 105 | – | – | – | – | – | 104 | 95.8 | 102 | 106 | 112 | > 10
CCCCC/N=c1\ccn(Cc2ccccc2)c2ccccc12 | – | 2.46 | 1.4 | 4.5 | 97 | 98.2 | 96.1 | 104 | 65.5 | 96.3 | 99.3 | 96 | 94.3 | 33.9 | > 10 | 0 | 2.1 | 2 | 94.9 | 100 | 90.6 | 99.2 | 94.2 | 101 | 94.4 | 100 | 97.5 | 64.3 | 93.3 | 94.9 | 103 | 98.5 | 63 | –
O=C(O)Cc1cc2ccccc2nc1C(=O)O [CCMQ] | – | > 10 | – | 0 | – | – | – | – | – | 107 | 110 | 95.6 | 109 | 96.9 | – | – | – | 0 | – | – | – | – | – | – | – | – | – | – | 106 | 111 | 103 | 98.2 | 98.4 | > 10
COC(=O)[C@@H]1[C@H]2C[C@H]3c4[nH]c5ccccc5c4CCN3C[C@@H]2CC[C@@H]1O [yohimbine] | > 10 | > 10 | 0 | 0.3 | 103 | 100 | 113 | 108 | 96.9 | 110 | 113 | 110 | 94.5 | 87.4 | > 10 | 0 | – | – | 110 | 105 | 101 | 101 | 98.6 | – | – | – | – | – | – | – | – | – | – | –
CC(C)(S)C(=O)N[C@@H](CS)C(=O)O [bucillamine] | – | – | 0 | 0 | – | – | – | – | – | – | – | – | – | – | – | 0 | – | – | – | – | – | – | – | – | – | – | – | – | – | – | – | – | – | –
N#Cc1ccc(Cn2cncc2CN2CCN(c3cccc(Cl)c3)C(=O)C2)cc1 | – | 2.09 | 2.1 | 3.8 | 104 | 88.2 | 87.1 | 96.4 | 67.5 | 108 | 100 | 107 | 93.3 | 49.9 | > 10 | 0.2 | 1.5 | 0.3 | 107 | 102 | 95.4 | 99.9 | 85.5 | 96.1 | 104 | 98.4 | 99.2 | 68.7 | 102 | 106 | 107 | 97.2 | 87 | > 10
N[C@@H](CS)C(=O)O [L-cysteine] | – | – | 0 | 0.2 | – | – | – | – | – | – | – | – | – | – | – | 0 | 0 | – | – | – | – | – | – | – | – | – | – | – | – | – | – | – | – | –
C=CCN1CCc2nc(N)sc2CC1 [talipexole] | – | – | – | – | – | – | – | – | – | – | – | – | – | – | > 10 | 0 | – | 0 | 103 | 107 | 98.1 | 100 | 100 | – | – | – | – | – | 102 | 104 | 99.2 | 106 | 102 | > 10
O=C(O)CCCC[C@@H]1CCSS1 [thioctic-acid] | – | > 10 | – | 0 | – | – | – | – | – | 114 | 97.9 | 111 | 106 | 120 | > 10 | 0.8 | – | – | 101 | 108 | 104 | 86.5 | 90.2 | – | – | – | – | – | – | – | – | – | – | –
CCC(=O)O[C@H]1CC[C@H]2[C@@H]3CCC4=CC(=O)CC[C@]4(C)[C@H]3CC[C@]12C [TESTOSTERONE PROPIONATE] | – | – | – | 0 | – | – | – | – | – | – | – | – | – | – | – | 0 | 0 | – | – | – | – | – | – | – | – | – | – | – | – | – | – | – | – | –
Cn1c(=O)c2c(ncn2CC2OCCO2)n(C)c1=O [doxofylline] | – | – | 0 | 1.3 | – | – | – | – | – | – | – | – | – | – | – | 0 | 0 | – | – | – | – | – | – | – | – | – | – | – | – | – | – | – | – | –
Cc1nc(N)sc1-c1ccnc(Nc2ccc(N3CCOCC3)cc2)n1 [CYC116] | > 10 | 1.38 | 0.7 | 7.2 | 104 | 109 | 101 | 105 | 75.5 | 97.9 | 106 | 97.9 | 77.8 | 28.4 | – | 5.1 | 4.1 | 1.7 | 100 | 103 | 99 | 80.8 | 51.6 | 104 | 102 | 103 | 89.6 | 53.7 | 99.3 | 87.4 | 98.8 | 87.7 | 75.1 | > 10
